What was measured:
[1] = test system: SF-539; experiment: NCI in vitro cancer screen, CNS Cancer; format: cell-based; conditions: SF-539, unit not printed (M)
[2] = test system: OVCAR-3; experiment: NCI in vitro cancer screen, Ovarian Cancer; format: cell-based, human; conditions: OVCAR-3, unit not printed (M)
[3] = test system: A498; experiment: NCI in vitro cancer screen, Renal Cancer; format: cell-based, human; conditions: A498, unit not printed (M)
[4] = test system: A549/ATCC; experiment: NCI in vitro cancer screen, Non-Small Cell Lung Cancer; format: cell-based, human; conditions: unit not printed (M)
[5] = test system: SF-295; experiment: NCI in vitro cancer screen, CNS Cancer; format: cell-based, human; conditions: SF-295, unit not printed (M)
[6] = test system: SR; experiment: NCI in vitro cancer screen, Leukemia; format: cell-based, human; conditions: unit not printed (M)
[7] = test system: T-47D; experiment: NCI in vitro cancer screen, Breast Cancer; format: cell-based, human; conditions: unit not printed (M)
[8] = test system: HL-60 (TB); experiment: NCI in vitro cancer screen, Leukemia; format: cell-based, human; conditions: HL-60(TB), unit not printed (M)
[9] = test system: TK-10; experiment: NCI in vitro cancer screen, Renal Cancer; format: cell-based, human; conditions: TK-10, unit not printed (M)
[10] = test system: SW-620; experiment: NCI in vitro cancer screen, Colon Cancer; format: cell-based, human; conditions: SW-620, unit not printed (M)
[11] = test system: MDA-MB-435; experiment: NCI in vitro cancer screen, Melanoma; format: cell-based, human; conditions: MDA-MB-435, unit not printed (M)
[12] = test system: IGROV1; experiment: NCI in vitro cancer screen, Ovarian Cancer; format: cell-based, human; conditions: IGROV1, unit not printed (M)
[13] = test system: K-562; experiment: NCI in vitro cancer screen, Leukemia; format: cell-based, human; conditions: K-562, unit not printed (M)
[14] = test system: RPMI-8226; experiment: NCI in vitro cancer screen, Leukemia; format: cell-based, human; conditions: RPMI, unit not printed (M)
[15] = test system: HT29; experiment: NCI in vitro cancer screen, Colon Cancer; format: cell-based, human; conditions: HT29, unit not printed (M)
[16] = test system: NCI-H226; experiment: NCI in vitro cancer screen, Non-Small Cell Lung Cancer; format: cell-based, human; conditions: NCI-H226, unit not printed (M)
[17] = test system: MCF7; experiment: NCI in vitro cancer screen, Breast Cancer; format: cell-based, human; conditions: MCF7, unit not printed (M)
[18] = test system: HS 578T; experiment: NCI in vitro cancer screen, Breast Cancer; format: cell-based, human; conditions: unit not printed (M)
[19] = test system: 786-0; experiment: NCI in vitro cancer screen, Renal Cancer; format: cell-based, human; conditions: 786-0, unit not printed (M)
[20] = test system: RXF-393; experiment: NCI in vitro cancer screen, Renal Cancer; format: cell-based, human; conditions: Homo sapiens, RXF 393, unit not printed (M)
[21] = test system: SN12C; experiment: NCI in vitro cancer screen, Renal Cancer; format: cell-based, human; conditions: unit not printed (M)
[22] = test system: HOP-62; experiment: NCI in vitro cancer screen, Non-Small Cell Lung Cancer; format: cell-based, human; conditions: HOP (first HOP line), unit not printed (M)
[23] = test system: NCI-H322M; experiment: as above; format: cell-based, human; conditions: unit not printed (M)
[24] = test system: SF-268; experiment: NCI in vitro cancer screen, CNS Cancer; format: cell-based, human; conditions: SF-268, unit not printed (M)
[25] = test system: UACC-257; experiment: NCI in vitro cancer screen, Melanoma; format: cell-based, human; conditions: UACC-257, unit not printed (M)
[26] = test system: MDA-MB-468; experiment: NCI in vitro cancer screen, Breast Cancer; format: cell-based, human; conditions: MDA-MB-468, unit not printed (M)
[27] = test system: SNB-75; experiment: NCI in vitro cancer screen, CNS Cancer; format: cell-based, human; conditions: SNB-75, unit not printed (M)
[28] = test system: UO-31; experiment: NCI in vitro cancer screen, Renal Cancer; format: cell-based, human; conditions: UO-31, unit not printed (M)
[29] = test system: EKVX; experiment: NCI in vitro cancer screen, Non-Small Cell Lung Cancer; format: cell-based, human; conditions: unit not printed (M)
[30] = Homo sapiens, read-out: LC50 (the source's name)

## COc1cc(/C=C/c2cc(O)cc(O)c2CC=C(C)C)ccc1O [USYDS10, (E)-2-(3-methyl-2-buten-1-yl)-3,4′,5-trihydroxy-3′-methoxystilbene]
[1]; Homo sapiens
  GI50: 376 nM
[1]; [30]
  CC50: 41.7 µM
[1]
  TGI: 1.29E−5
[2]; Homo sapiens
  GI50: 372 nM
[2]; [30]
  CC50: > 100 µM
[2]
  TGI: 2.03E−5
[3]
  TGI: 7.85E−6
[3]; Homo sapiens
  GI50: 2170 nM
[3]; [30]
  CC50: 34.8 µM
[4]; Homo sapiens
  GI50: 660 nM
[4]; [30]
  CC50: > 100 µM
[4]
  TGI: 2.25E−5
[5]; Homo sapiens
  GI50: 2010 nM
[5]; [30]
  CC50: > 100 µM
[5]
  TGI: 1.91E−5
[6]; Homo sapiens
  GI50: 188 nM
[6]; [30]
  CC50: > 100 µM
[6]
  TGI: >1.00E−4
[7]; Homo sapiens, T47D
  GI50: 1470 nM
[7]; Homo sapiens, T47D, read-out: LC50 (the source's name)
  CC50: > 100 µM
[7]
  TGI: 2.47E−5
[8]
  TGI: 1.88E−6
[8]; Homo sapiens
  GI50: 327 nM
[8]; [30]
  CC50: > 100 µM
[9]; Homo sapiens
  GI50: 9.55 µM
  LC50: > 100 µM
[9]
  TGI: 5.15E−5
[10]; Homo sapiens
  GI50: 362 nM
[10]; [30]
  CC50: 85.5 µM
[10]
  TGI: 2.15E−5
[11]; Homo sapiens
  GI50: 38.5 nM
[11]; [30]
  CC50: > 100 µM
[11]
  TGI: 2.56E−7
[12]; Homo sapiens, IGROV-1
  GI50: 2030 nM
[12]; Homo sapiens, IGROV-1, read-out: LC50 (the source's name)
  CC50: > 100 µM
[12]
  TGI: >1.00E−4
[13]; Homo sapiens, K562
  GI50: 386 nM
[13]; Homo sapiens, K562, read-out: LC50 (the source's name)
  CC50: > 100 µM
[13]
  TGI: 3.17E−5
[14]; Homo sapiens, RPMI-8226
  GI50: 324 nM
[14]; Homo sapiens, RPMI-8226, read-out: LC50 (the source's name)
  CC50: > 100 µM
[14]
  TGI: 1.63E−5
[15]
  TGI: 2.13E−5
[15]; Homo sapiens, HT-29
  GI50: 5.72 µM
[15]; Homo sapiens, HT-29, read-out: LC50 (the source's name)
  CC50: 69 µM
[16]; Homo sapiens
  GI50: 5.35 µM
  LC50 (50% lethal concentration): > 100 µM
[16]
  TGI: 3.50E−5
[17]; Homo sapiens
  GI50: 332 nM
[17]; [30]
  CC50: 50.6 µM
[17]
  TGI: 1.30E−5
[18]; Homo sapiens
  GI50: 292 nM
[18]; [30]
  CC50: > 100 µM
[18]
  TGI: 2.60E−5
[19]
  TGI: 2.01E−5
[19]; Homo sapiens
  GI50: 681 nM
  LC50 (50% net cell kill): 74.5 µM
[20]
  GI50: 221 nM
[20]; read-out: LC50 (the source's name)
  CC50: 37.6 µM
[21]; Homo sapiens
  GI50: 671 nM
[21]; [30]
  CC50: > 100 µM
[21]
  TGI: 2.98E−5
[22]
  TGI: 1.77E−5
[22]; Homo sapiens, HOP-62
  GI50: 581 nM
[22]; Homo sapiens, HOP-62, read-out: LC50 (the source's name)
  CC50: 42.3 µM
[23]; Homo sapiens
  GI50: 11.8 µM
  LC50 (50% lethal concentration): 83.7 µM
[23]
  TGI: 3.14E−5
[24]; Homo sapiens
  GI50: 1400 nM
[24]; [30]
  CC50: > 100 µM
[24]
  TGI: 4.96E−5
[25]; Homo sapiens
  GI50: 11.7 µM
[25]; [30]
  CC50: 73.7 µM
[25]
  TGI: 2.94E−5
[26]; Homo sapiens
  GI50: 373 nM
[26]; [30]
  CC50: 44.9 µM
[26]
  TGI: 1.44E−5
[27]; Homo sapiens
  GI50: 236 nM
[27]; [30]
  CC50: 36.1 µM
[27]
  TGI: 1.22E−5
[28]; Homo sapiens
  GI50: 878 nM
[28]; [30]
  CC50: 95.2 µM
[28]
  TGI: 2.17E−5
[29]; Homo sapiens
  GI50: 12.2 µM
[29]; [30]
  CC50: > 100 µM
[29]
  TGI: 7.34E−5
